Results on 25 compounds are retold here after patent EP2582674B1 (Cymabay Therapeutics, Inc., priority 2010, dated 2011).

What is called EC50 is the concentration that produces a half-maximal response.

In the first experiment the target is T1, human GPR120 (Homo sapiens, UniProt Q5NUL3).
T1 construct: host or cells: HEK293 cells co-expressing Gqi5
T1 sequence (Q5NUL3 1-361): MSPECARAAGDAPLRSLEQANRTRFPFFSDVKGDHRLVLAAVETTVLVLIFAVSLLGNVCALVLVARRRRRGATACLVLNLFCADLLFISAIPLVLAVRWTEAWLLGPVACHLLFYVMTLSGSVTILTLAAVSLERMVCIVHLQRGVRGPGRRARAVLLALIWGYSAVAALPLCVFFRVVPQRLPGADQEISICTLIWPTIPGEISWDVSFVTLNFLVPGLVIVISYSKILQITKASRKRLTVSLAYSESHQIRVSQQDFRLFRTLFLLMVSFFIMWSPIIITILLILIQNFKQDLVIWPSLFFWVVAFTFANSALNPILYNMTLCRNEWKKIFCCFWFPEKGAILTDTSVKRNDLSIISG
As to the kind of experiment: Intracellular Ca2+ assay in human GPR120 stable cell line (FLIPR Calcium 4 dye, Flexstation). The experiment is classed as cell-based. The note with it: HEK293, % activity at 2.5 µM compared to the maximal activity of the compound of Example 25 at 2.5 µM (=100%); HEK293 cells co-expressing Gqi5; read-out: % Activity (Ex. 25 Reference Compound). The method, then:
Human GPR120 stable cell line was purchased from Multispan Inc (26219 Eden Landing Road, Hayward, CA94545). This GPR120 cell line was generated in HEK293 cells co-expressing Gqi5. In this cell line, the Flag epitope tag (DYKDDDDK) was fused to the amino terminus of human GPR120 protein.
The concentration of intracellular Ca^2+ was measured as described below. Human GPR120 cells were plated in 96 well plates (Poly-D-Lysine coated black/clear Plate, Greiner Bio-One) at 70,000 cells per well and cultured overnight in conditions of 37°C and 5% CO2. A Ca^2+ assay dye stock solution was prepared by adding 10 mL of assay buffer (HBSS/20mM HEPES, pH 7.4) to FLIPR Calcium 4 Assay Bulk Kit (Molecular Devices). The 10 mL of Ca^2+ assay dye solution was prepared by further diluting 0.5 mL of Ca^2+ assay dye stock solution with 10 mL of assay buffer. The medium of the cells was removed and immediately 100 µL of the Ca^2+ assay dye solution was dispensed into each well followed by incubation at 37°C and 5% CO2 for 50 minutes to incorporate the Ca^2+ dye into the cells. The cell plate was then placed in the Flexstation (Molecular Devices) for 20 minutes at 37°C. Compounds were dissolved in 100% DMSO and diluted to desired concentrations with assay buffer and placed in the Flexstation simultaneously with the cell plate for 20 minute incubation at 37°C prior to reading. Fluorescence intensity was measured immediately following compound addition (25 µL/well) on the Flexstation at an excitation wavelength of 485 nm and an emission wavelength of 525 with 515 nm auto cutoff. The resulting increase in fluorescence intensities corresponds to increases in intracellular Ca^2+ levels.
Compounds were dissolved in 100% DMSO to a concentration of 20 mM to provide stock solutions. To determine activity against human GPR120, compounds were added with human GPR120 stably expressing cells (described above), at eight desired concentrations ranging from 0.00001 to 20 µM, in 96 well plates and fluorescence intensities were measured for 90 seconds with 2-second intervals. An EC50 value (concentration of the GPR120 agonist where 50% of the agonist's maximal activity is observed) was calculated using the changes (Max-Min) of fluorescence intensity.
To determine percent activity for a tested compound, the fluorescence intensity value obtained at a particular concentration were compared to the maximal fluorescence intensity value obtained for reference compound GW9508 (4-[[(3-phenoxyphenyl)methyl]amino]benzene propanoic acid; British Journal of Pharmacology 2006 148, 619-628) or the compound of Example 25. When GW9508 was used as the reference compound, the maximal activity of GW9508 at 6.7µM was designated as 100% activity. When the compound of Example 25 was used as the reference compound, the maximal activity of the compound of Example 25 at 2.5 µM was designated as 100% activity. Typically, the GW9508 activity reached a maximum at a concentration of approximately 6.7 µM and typically the compound of Example 25 reached a maximum activity at approximately 2.5µM. […]
As to `CC(CCc1ccc(OCc2cc(F)cc3c2OC(C)(C)C3)cc1)C(=O)O` (centres unmarked) [Example 171, 4-(4-((5-fluoro-2,2-dimethyl-2,3-dihydrobenzofuran-7-yl)methoxy)phenyl)-2-methylbutanoic acid], the activity at 2.5 µM amounted to 99%.

`CCc1cc(OCc2cc(F)cc3c2OC(C)(C)C3)c(F)cc1CCC(=O)O` [Example 220, 3-(2-ethyl-5-fluoro-4-((5-fluoro-2,2-dimethyl-2,3-dihydrobenzofuran-7-yl)methoxy)phenyl)propanoic acid]: the activity at 2.5 µM was determined as 116%.

Turning to `CCc1cc(OCc2cccc3c2CC(C)(C)O3)ccc1CCC(=O)O` [Example 140, 3-(4-((2,2-dimethyl-2,3-dihydrobenzofuran-4-yl)methoxy)-2-ethylphenyl)propanoic acid], the activity at 2.5 µM was determined as 146%.

For `CC(C)Oc1cc(OCc2cc(Cl)cc3c2OC(C)(C)C3)ccc1CCC(=O)O` [Example 116, 3-(4-((5-chloro-2,2-dimethyl-2,3-dihydrobenzofuran-7-yl)methoxy)-2-isopropoxyphenyl)propanoic acid], the activity at 2.5 µM worked out at 146%.

`CC1(C)Cc2cc(Cl)cc(COc3ccc(C(C)(C)CC(=O)O)cc3)c2O1` [Example 156, 3-(4-((5-chloro-2,2-dimethyl-2,3-dihydrobenzofuran-7-yl)methoxy)phenyl)-3-methylbutanoic acid]: the activity at 2.5 µM was 149%.

As to `Cc1cc(CCC(=O)O)c(C)c(C)c1OCc1cc(F)cc2c1OC(C)(C)C2` [Example 254, 3-(4-((5-fluoro-2,2-dimethyl-2,3-dihydrobenzofuran-7-yl)methoxy)-2,3,5-trimethylphenyl) propanoic acid], the activity at 2.5 µM was 146%.

Regarding `CC(Cc1ccc(OCc2c(F)ccc3c2CC(C)(C)O3)cc1)C(=O)O` (centres unmarked) [Example 96, 3-(4-((5-fluoro-2,2-dimethyl-2,3-dihydrobenzofuran-4-yl)methoxy)phenyl)-2-methylpropanoic acid], the activity at 2.5 µM is 125%.

For the compound `CC(Cc1ccc(OCc2cc(Cl)cc3c2OC(C)(C)C3O)cc1)C(=O)O` (centres unmarked) [Example 130, 3-(4-((5-chloro-3-hydroxy-2,2-dimethyl-2,3-dihydrobenzofuran-7-yl)methoxy)phenyl)-2-methylpropanoic acid], the activity at 2.5 µM was determined as 104%.

Take `CC1(C)Cc2cc(Cl)cc(CNc3ccc(CCC(=O)O)cc3)c2O1` [Example 127, 3-(4-(((5-chloro-2,2-dimethyl-2,3-dihydrobenzofuran-7-yl)methyl)amino)phenyl) propanoic acid]: the activity at 2.5 µM amounted to 153%.

Take `CCOC(Cc1cc(F)c(OCc2cc(F)cc3c2OC(C)(C)C3)c(F)c1)C(=O)O` (centres unmarked) [Example 69, 3-(3,5-difluoro-4-((5-fluoro-2,2-dimethyl-2,3-dihydrobenzofuran-7-yl)methoxy)phenyl)-2-ethoxypropanoic acid]: the activity at 2.5 µM was 78.5%.

`CC(Cc1ccc(COc2cccc3c2OC(C)(C)C3)c(F)c1)C(=O)O` (centres unmarked) [Example 44, 3-(4-(((2,2-dimethyl-2,3-dihydrobenzofuran-7-yl)oxy)methyl)-3-fluorophenyl)-2-methylpropanoic acid]: the activity at 2.5 µM was 157%.

In the case of `COc1cc(COc2ccc(CC(C)C(=O)O)cc2)c2c(c1)CC(C)(C)O2` (centres unmarked) [Example 108, 3-(4-((5-methoxy-2,2-dimethyl-2,3-dihydrobenzofuran-7-yl)methoxy)phenyl)-2-methylpropanoic acid], the activity at 2.5 µM came to 144%.

For `CC(Cc1ccc(OCc2cc(Cl)cc3c2OCC3(C)C)cc1)C(=O)O` (centres unmarked) [Example 148, 3-(4-((5-chloro-3,3-dimethyl-2,3-dihydrobenzofuran-7-yl)methoxy)phenyl)-2-methylpropanoic acid], the activity at 2.5 µM was 114%.

Turning to `Cc1cc2c(OCc3cc(F)cc4c3OC(C)(C)C4)ccc(CCC(=O)O)c2o1` [Example 125, 3-(4-((5-fluoro-2,2-dimethyl-2,3-dihydrobenzofuran-7-yl)methoxy)-2-methylbenzofuran-7-yl)propanoic acid], the activity at 2.5 µM worked out at 32.6%.

Turning to `CCc1c(CCC(=O)O)ccc(OCc2cc(F)cc3c2OC(C)(C)C3)c1F` [Example 216, 3-(2-ethyl-3-fluoro-4-((5-fluoro-2,2-dimethyl-2,3-dihydrobenzofuran-7-yl)methoxy)phenyl)propanoic acid], the activity at 2.5 µM was found to be 144%.

Take `COc1cccc(-c2cc(COc3ccc(CC(C)C(=O)O)cc3)c3c(c2)CC(C)(C)O3)c1` (centres unmarked) [Example 86, 3-(4-((5-(3-methoxyphenyl)-2,2-dimethyl-2,3-dihydrobenzofuran-7-yl)methoxy)phenyl)-2-methylpropanoic acid]: the activity at 2.5 µM was determined as 5.23%.

Still in this experiment, the particulars now being: HEK293, % activity at 5 µM compared to the maximal activity of GW9508 at 6.7 µM (=100%); HEK293 cells co-expressing Gqi5; read-out: %Activity (GW9508 Reference Compound).
Take `CC(Cc1cc(Cl)c(OCc2cc(Cl)cc3c2OC(C)(C)C3)c(Cl)c1)C(=O)O` (centres unmarked) [Example 14, 3-(3,5-dichloro-4-((5-chloro-2,2-dimethyl-2,3-dihydrobenzofuran-7-yl)methoxy)phenyl)-2-methylpropanoic acid]: the activity at 5 µM amounted to 84.5%.

For `CC(Cc1ccc(OCc2cc(Cl)cc3c2OC(C)(C)C3)cc1Cl)C(=O)O` (centres unmarked) [Example 26, 3-(2-chloro-4-((5-chloro-2,2-dimethyl-2,3-dihydrobenzofuran-7-yl)methoxy)phenyl)-2-methylpropanoic acid], the activity at 5 µM stood at 164%.

For the compound `CC(Cc1ccc(OCc2ccc(F)c3c2OC(C)(C)C3)c(F)c1)C(=O)O` (centres unmarked) [Example 29, 3-(3-fluoro-4-((4-fluoro-2,2-dimethyl-2,3-dihydrobenzofuran-7-yl)methoxy)phenyl)-2-methylpropanoic acid], the activity at 5 µM amounted to 134%.

Turning to `CC(Cc1ccc(OCc2cc(F)cc3c2OC(C)(C)C3)c(F)c1)C(=O)O` (centres unmarked) [Example 8, 3-(3-fluoro-4-((5-fluoro-2,2-dimethyl-2,3-dihydrobenzofuran-7-yl)methoxy)phenyl)-2-methylpropanoic acid], the activity at 5 µM is 135%.

As for `CC1(C)Cc2c(COc3c(F)cc(C4CC4C(=O)O)cc3F)cccc2O1` (centres unmarked) [Example 22, 2-(4-((2,2-dimethyl-2,3-dihydrobenzofuran-4-yl)methoxy)-3,5-difluorophenyl) cyclopropanecarboxylic acid], the activity at 5 µM is 126%.

Regarding `CC1(C)Cc2cc(F)cc(COc3ccc4c(c3)CCC4CC(=O)O)c2O1` (centres unmarked) [Example 37, 2-(5-((5-fluoro-2,2-dimethyl-2,3-dihydrobenzofuran-7-yl)methoxy)-2,3-dihydro-1H-inden-1-yl)acetic acid], the activity at 5 µM is 125%.

For the compound `COc1cc(CC(C)C(=O)O)ccc1OCc1cc(Cl)cc2c1OC(C)(C)C2` (centres unmarked) [Example 15, 3-(4-((5-chloro-2,2-dimethyl-2,3-dihydrobenzofuran-7-yl)methoxy)-3-methoxyphenyl)-2-methylpropanoic acid], the activity at 5 µM came to 109%.

Consider `CC1(C)Cc2cccc(COc3c(F)cc(CCC(=O)O)cc3F)c2O1` [Example 25, 3-(4-((2,2-dimethyl-2,3-dihydrobenzofuran-7-yl)methoxy)-3,5-difluorophenyl)propanoic acid], for which the activity at 5 µM came out at 102%.

As for `CC1Cc2cccc(COc3c(F)cc(CCC(=O)O)cc3F)c2O1` (centres unmarked) [Example 20], the activity at 5 µM came to 138%.

The experiment is the same for the next values; noted with them: eight concentrations from 0.00001 to 20 µM; changes (Max-Min) of fluorescence intensity.
With `CC(CCc1ccc(OCc2cc(F)cc3c2OC(C)(C)C3)cc1)C(=O)O` (centres unmarked) [Example 171, 4-(4-((5-fluoro-2,2-dimethyl-2,3-dihydrobenzofuran-7-yl)methoxy)phenyl)-2-methylbutanoic acid], the EC50 lay in the range of 1 to 10 µM.

Take `CC(Cc1ccc(OCc2cc(Cl)cc3c2OC(C)(C)C3O)cc1)C(=O)O` (centres unmarked) [Example 130, 3-(4-((5-chloro-3-hydroxy-2,2-dimethyl-2,3-dihydrobenzofuran-7-yl)methoxy)phenyl)-2-methylpropanoic acid]: the EC50 fell in the range of 1 to 10 µM.

Take `CC(Cc1ccc(COc2cccc3c2OC(C)(C)C3)c(F)c1)C(=O)O` (centres unmarked) [Example 44, 3-(4-(((2,2-dimethyl-2,3-dihydrobenzofuran-7-yl)oxy)methyl)-3-fluorophenyl)-2-methylpropanoic acid]: the EC50 lay in the range of 1 to 10 µM.

Still in this experiment, the particulars now being: typical value, reference compounds of the Ca2+ assay.
Consider `CC1(C)Cc2cccc(COc3c(F)cc(CCC(=O)O)cc3F)c2O1` [Example 25, 3-(4-((2,2-dimethyl-2,3-dihydrobenzofuran-7-yl)methoxy)-3,5-difluorophenyl)propanoic acid], for which the “concentration at which activity reached a maximum” value was “approximately 2.5 µM”.
